Key:
Assay type in all cases: cell-based, human
[1] = tested on: SVCT-2 low-expression cell lines (DLD1 and HCT15); test: ROS production by DCF-Da staining (FACS), SVCT-2 low-expression cell lines; settings: 15 minutes, DLD-1 and HCT15
Protocol: In order to investigate ROS production, when treating vitamin C of 10 μM or 1 mM to SVCT-2 low-expression cell lines (DLD1 and HCT15), after treating each dose of vitamin C to SVCT-2 low-expression cell lines, they were stained with DCF-Da, and the ROS measurement result was shown in FIG. 3a and FIG. 3b.

[2] = tested on: HCT15 and DLD-1 cell lines; test: c-Myc localization by immunocytochemistry, SVCT-2 low-expression cell lines; settings: vitamin C 1 mM or 10 μM
Protocol: (§1) Cells treated with vitamin C were immobilized with 4% paraformaldehyde for 10 minutes and were washed with PBS 3 times for 5 minutes, and then permeable buffer (Biolegend, San Diego, Calif., USA) was treated for 10 minutes. Then, cells were washed with PBS 3 times and were cultured with anti-c-Myc (1:500; NB200-108, Novus biologics) antibody at 4° C. overnight. Then, after washing with PBS 4 times, cells were cultured with a secondary anti-mouse-TRITC (1:1000; ab6786; Abcam) conjugated antibody.
In order to investigate the expression of cancer proliferation markers in SVCT-2 low-expression cell lines and localization where c-Myc is present in cancer cell lines, after treating vitamin C of 1 mM or 10 μM to each SVCT-2 low-expression cell line, HCT15 and DLD-1 cell lines, the immunocytochemistry of Experimental example 5 was conducted, and the result was shown in FIGS. 4a and 4b.

[3] = tested on: SVCT-2 low-expression cell lines (HCT116, CoLo-205, HCT15, DLD-1); test: Cell viability (Neutral red), vitamin C concentration gradient, SVCT-2 low-expression cell lines
Protocol: (§2) The cell viability was measured by Neutral red (sigma) assay. Cells (1×10^4/each well) were inoculated on a 96-well plate and were cultured for 24 hours and were treated with vitamin C for 4 hours, and then were washed with PBS (Pan Biotech), and were further cultured in RPMI1640 without vitamin C for 20 hours. They were washed twice and were stained.
(§3) In order to research a role conducted by vitamin C treated at a high concentration or low concentration to cancer cell lines, after treating vitamin C at various concentrations according to a concentration gradient to each cell line, the cell viability analysis was conducted using the method of Experimental example 2.
After treating vitamin C to SVCT-2 low-expression cell liens (HCT116, CoLo-205, HCT15, DLD-1) according to a concentration gradient (0 μm to 2 mM), the cell viability was measured, and the result was shown in FIG. 2a.

[4] = tested on: SVCT-2 high-expression cell lines, Sw620 and Sw480; test: qRT-PCR gene expression analysis, SVCT-2 high-expression cell lines
Protocol: (§4) According to the method provided by the manufacturer, the total RNA of cells was extracted using TRI reagent (MRC; Molecular Research Center, Cincinnati, Ohio, USA). The RNA concentration was determined using a spectrophotometer reading the absorbance at 260 nm. cDNA was synthesized using mML-V reverse transcriptase (Bioneer Co, Daejeon, Republic of Korea) according to the protocol provided by the manufacturer. Then, using SYBR Premix Ex Taq (TaKaRa, Otsu, Shinga, Japan) and Rotor-Gene Q system (Qiagen, Chadstone, Victoria, Australia), quantitative real-time PCR was carried out. Data were analyzed using Rotor-Gene Q series software version 2.3.1 (Qiagen).
(§5) In order to confirm the apoptosis and hormetic proliferation response by vitamin C, the quantitative real-time polymerase chain reaction (qRT-PCR) gene-expression analysis of p53, Cyclin D1, E2F1 and Ki-67 genes was conducted using the method of Experimental example 3, and the result was shown in FIG. 2c to FIG. 2f.
After treating vitamin C 10 μM and phloretin to SVCT-2 high-expression cell lines, Sw480 and Sw620 at the same time, the relative expression of Ki-67 and E2F1 used as cancer cell proliferation markers was measured using the qRT-PCR of Example 1, and the result was shown in FIG. 5e and FIG. 5f.

[5] = tested on: HCT15 and DLD-1; test: Western blot of Bax, c-Myc and Cyclin D1, SVCT-2 low-expression cell lines
Protocol: (§6) Protein was extracted from frozen tissue using PRO-PREP protein extraction kit according to the instruction of the manufacturer. The protein concentration was measured using Bradford assay (Bio-RAD, Munich, Germany)
(§7) After denaturalizing protein 30 μg in sample buffer at 95° C. for 6 minutes, samples were loaded on 12% SDS-polyacrylamide gel and were transferred to a nitrocellulose blotting membrane. Subsequently, the membrane was blocked with 5% skim milk in Tris-buffered saline. Then, after washing it with Tris-buffered saline-0.10% Tween 20 three times, the membrane was cultured at 4° C. overnight with anti-cyclin D1 (1:2500; NB600-584; Novus biologics), anti-c-Myc (1:2500; NB200-108; Novus biologics), anti-Bax (1:2000; 2774; Cell Signaling Technology, Beverly, Mass., USA), and anti-beta-actin (1:5000; ab20272; Abcam, Cambridge, Mass., USA) antibodies. Then, after washing it with Tris-buffered saline-0.10% Tween 20 4 times for 20 minutes, the membrane was cultured with a secondary anti-rabbit, anti-rat or anti-goat antibody for 1 hour. After additional washing, immunoreactive bands exposed to ECL substrate (Pierce, Rockford, Ill., USA) and X-ray film (Agfa-Gevaert N.V, Septestraat, Mortsel, Belgium) were detected.
In order to investigate the apoptosis and proliferation of cancer cells by vitamin C treatment in the protein expression level, a low concentration or high concentration of vitamin C was treated to SVCT-2 low-expression cell lines and the western blot analysis of Bax, c-Myc, and Cyclin D1 was conducted using the method of Experimental example 4, and the result was shown in FIG. 4c and FIG. 4d.

[6] = tested on: colorectal cancer cell lines (Sw480, Sw620, LoVo, SNU-C4, HCT116, SNU-05, CoLo-205, HCT15, DLD-1); test: Cell viability (Neutral red) of colorectal cancer cell lines treated with 1 mM vitamin C; settings: nine colorectal cancer cell lines
Protocol: Human colorectal cancer cells were cultured in RPMI1640 medium Gilbco, Cergy Pontoise, France) containing 10% bovine fetal serum (PAN Biotech, Aidenbach, Germany) and 1% Penstrep (PAN Biotech) in a humidified incubator comprising 5% CO2 under the condition of 37° C. Vitamin C was purchased from BCWORLD PHARM (BCWORLD PHARM. CO, Seoul, Korea), and phloretin was purchased from sigma Aldrich (Sigma, St. Louis, Mo., USA).
The human colorectal cancer cell lines used in the experiment were Sw480, Sw620, HCT116, HCT15, SNU-C4, SNU-05, DLD-1, LoVo, and CoLo-205 cell lines commonly used in the related art. All the colorectal cancer cell lines used in the experiment of the present invention were received from Dr. Yu Byung-Chul of National Cancer Center.
as §2
The cell viability of each colorectal cancer cell line was measured using the method of Experimental example 2, and the result was shown in FIG. 1b.

[7] = tested on: SVCT high-expression cell lines (Sw480, Sw620, LoVo, SNU-C4); test: Cell viability (Neutral red), vitamin C concentration gradient, SVCT-2 high-expression cell lines
Protocol: as §2, §3
As same as the SVCT low-expression cell lines, after treating vitamin C to SVCT high-expression cell lines (Sw480, Sw620, LoVo, SNU-C4) according to a concentration gradient (0 μm to 2 mM), the cell viability was measured, and the result was shown in FIG. 2b. It was confirmed that in case of high-expression cell lines, when treating a low concentration of vitamin C, the cell viability was reduced, and as the treated concentration of vitamin C increased, the cell viability was reduced more.

[8] = tested on: SVCT-2 high-expression cell lines, Sw480 and Sw620; test: Cell viability of Sw480 and Sw620 treated with vitamin C and/or phloretin; settings: for cell response (cell viability): Sw620 and Sw480
Protocol: as §2

[9] = tested on: SVCT-2 low-expression cell lines, DLD-1 and HCT15; test: qRT-PCR gene expression analysis, SVCT-2 low-expression cell lines
Protocol: as §4, §5

[10] = tested on: Sw620 and Sw480 cell lines; test: ROS production by DCF-Da staining (FACS), SVCT-2 high-expression cell lines
Source text: In order to confirm ROS production in SVCT-2 high-expression cell lines in the apoptosis response and hormetic response, and more specifically confirm the cause of the result of Example 5, the present inventors investigated ROS production using DCF-Da staining in Sw620 cell line and Sw480 cell line, and the result was shown in FIG. 5c and FIG. 5d.

[11] = tested on: SVCT-2 high-expression cell lines, Sw480 and Sw620; test: Western blot of Bax, c-Myc and Cyclin D1, SVCT-2 high-expression cell lines
Protocol: as §6, §7
After treating vitamin C 10 μM and phloretin to SVCT-2 high-expression cell lines, Sw480 and Sw620 at the same time, the western blot analysis of Bax, c-Myc and Cyclin D1 in cells was conducted, and the result was shown in FIG. 6c and FIG. 6d.

[12] = tested on: SVCT-2 high-expression cell lines, Sw480 and Sw620; test: Vitamin C absorption in Sw480 and Sw620 with the SVCT family inhibitor phloretin; settings: phloretin 20 μM together with vitamin C 1 mM
Protocol: In order to measure the vitamin C absorption of each colorectal cancer cell line, the absorption of vitamin C in cells was analyzed with High Performance Liquid Chromatography (HPLC), and the result was shown in FIG. 1c.
Then, after treating 1 mM vitamin C, or treating vitamin C 1 mM and phloretin 20 μM together to each cell line of the SVCT-2 high-expression cell lines, Sw480 and Sw620, the vitamin C absorption was measured, and the result was shown in FIG. 9a.
The experimental results measured according to the method for measuring the vitamin C absorption of SVCT-2 expression cell lines of Example 1-3, after treating various concentrations (0 mM or 1 mM) of vitamin C and treating 1 mM vitamin C and 20 μM phloretin, for SVCT-2 high-expression cell lines, Sw480 and Sw620 were shown in FIG. 9a.

[13] = tested on: SVCT-2 high-expression cells; test: c-Myc localization by immunocytochemistry, SVCT-2 high-expression cell lines; settings: phloretin treated together with vitamin C
Protocol: as §1
In order to confirm the cell proliferation by the hormetic response in cancer cell lines, the cell proliferation confirmation experiment through c-Myc was conducted.
Specifically, after smearing cells on cover glass and culturing them, vitamin C was treated and after washing with PBS, an antigen with […] as antigens was attached to cells, and it was confirmed through fluorescence.

[14] = vitamin C 10 μM or 1 mM, Sw620 and Sw480
[15] = low concentration (10 μM) vitamin C, DLD-1 and HCT15
[16] = 10 μM or 1 mM vitamin C without phloretin
[17] = vitamin C 10 μM and phloretin at the same time, Sw620 and Sw480
[18] = 10 μM vitamin C and phloretin at the same time

Compound: O=C1O[C@H]([C@@H](O)CO)C(O)=C1O [vitamin C, L-ASCORBIC ACID]
- ROS production (DCF-Da) ([1]; 10 μM vitamin C): not produced
- ROS production (DCF-Da) ([1]; 1 mM vitamin C): produced
- c-Myc localization (immunocytochemistry) [2]: almost localized in cytoplasm
- cell viability ([3]; vitamin C 1.0 mM to 2.0 mM or more): dramatically reduced
- cell viability ([3]; vitamin C less than 10 μM): over 100%
- expression of p53 (qRT-PCR) ([4]; 10 μM and 1 mM, SVCT-2 high-expression cell lines): increased
- expression of E2F1 (qRT-PCR) [4, 14]: reduced
- expression of Ki-67 (qRT-PCR) [4, 14]: reduced
- expression of cyclin D1 (qRT-PCR) [4, 14]: reduced
- expression of c-Myc (western blot) ([5]; 10 μM vitamin C): increased
- expression of cyclin D1 (western blot) ([5]; 10 μM vitamin C): increased
- expression of c-Myc (western blot) ([5]; 1 mM vitamin C): reduced
- expression of cyclin D1 (western blot) ([5]; 1 mM vitamin C): reduced
- Bax expression (western blot) ([5]; vitamin C 1 mM and 10 μM): did not significantly change
- cytotoxicity of vitamin C (cell viability) [6]: proportional to SVCT-2 expression
- cell viability ([7]; as the treated concentration of vitamin C increased (up to 2 mM)): reduced more
- cell viability ([7]; low concentration of vitamin C): reduced
- cell response (cell viability) ([8]; vitamin C 1 mM and 10 μM, without phloretin): apoptosis response was induced
- expression of p53 (qRT-PCR) ([9]; 10 μM and 1 mM tested, SVCT-2 low-expression cell lines): induced only in case of treatment of 1 mM vitamin C
- expression of E2F1 (qRT-PCR) [9, 15]: increased
- expression of Ki-67 (qRT-PCR) [9, 15]: increased
- expression of cyclin D1 (qRT-PCR) [9, 15]: increased
- ROS production (DCF-Da) ([10]; 1 mM vitamin C or 10 μM vitamin C): produced
- expression of C-Myc (western blot) [11, 16]: significantly reduced
- expression of cyclin D1 (western blot) [11, 16]: significantly reduced
- Bax expression (western blot) ([11]; vitamin C treatment (10 μM or 1 mM)): increased

Compound: O=C(CCc1ccc(O)cc1)c1c(O)cc(O)cc1O [phloretin]
- intracellular capacity of vitamin C (vitamin C absorption) [12]: reduced
- expression of E2F1 (qRT-PCR) [4, 17]: increased
- expression of Ki-67 (qRT-PCR) [4, 17]: increased
- localization of increased c-Myc (immunocytochemistry) [13]: present in cytoplasm not a nucleus
- cytotoxicity of phloretin (cell viability assay) ([8]; concentration of phloretin used in the experiment (20 μM; 0-40 μM tested), Sw480 and Sw620): no cell self-toxicity
- cell response (cell viability) ([8]; phloretin together with vitamin C 10 μM): hormetic proliferation response occurred
- ROS production (DCF-Da) ([10]; 20 μM phloretin with 10 μM vitamin C): not sufficiently produced
- expression of C-Myc (western blot) [11, 18]: increased
- expression of cyclin D1 (western blot) [11, 18]: increased
- Bax expression (western blot) ([11]; phloretin treatment (with 10 μM vitamin C)): did not change remarkably
